From publication PMC7481839, “Switchable foldamer ion channels with antibacterial activity” (Chemical Science, 2020)
Where a SMILES comes first, the peptide text is derived from it.

Assay: U-tube lucigenin (chloride) transport experiment
Details: 1 mM in chloroform, 20 mM MOPS, 100 mM NaCl, pH 7.4, 25 °C, up to 24 h, UV at 455 nm
Protocol: To assess if these compounds can act as cation carriers, U-tube experiments for sodium picrate transport were performed on 1, Cu(II)[1]Cl2 and Cu(II)[2]Cl2. […] Similarly, a U-tube experiment for chloride transport was performed using lucigenin.[4],[40]
5.7 Preparation of large unilamellar vesicles for CF release assays
A 50 mM 5(6)-carboxyfluorescein (CF) solution in MOPS buffer (20 mM MOPS, 100 mM NaCl, pH 7.4) was prepared by dissolving 5/6-CF in MOPS buffer, adding a sodium hydroxide (1M) solution dropwise until pH 11 was reached. The resulting solution was the slowly acidified to pH 7.4.
EYPC-cholesterol (4:1) 800 nm vesicles were prepared as described above, using the above mentioned 5(6)-carboxyfluorescein (CF) (50 mM) solution. […]
The U-tube was incubated in a water bath at 25 °C and the chloroform phase was stirred at 300 rpm during the entire experiment, ensuring efficient diffusion of any potential carrier-ion complex to the receiving phase. Aliquots (1 mL) were taken from the receiving phase and analysed for the presence of picrate by UV spectroscopy (at 356 nm). […]
Figure S11: U-tube metal picrate transport data for foldamer 1 (brown), Cu[2]Cl2 (black), Cu[1]Cl2 (green), and the control transporter, dibenzo-18-crown-6 (red). Absorbance at 356 nm. […]
Aliquots (1 mL) were taken from the receiving phase and analysed for the presence of lucigenin by UV spectroscopy (at 455 nm). […]

CC(C)(NC(=O)C(C)(C)NC(=O)C(C)(C)NC(=O)C(C)(C)NC(=O)C(C)(C)n1cc(CN(Cc2ccccn2)Cc2ccccn2)nn1)C(=O)NC(C)(C)C(=O)NC(C)(C)C(=O)NC(C)(C)C(=O)OCC[Si](C)(C)C [foldamer 2] (HELM PEPTIDE1{[CC(C)(C(=O)[*:2])n1cc(CN(Cc2ccccn2)Cc2ccccn2)nn1].[Aib].[Aib].[Aib].[Aib].[Aib].[Aib].[Aib].[C[Si](C)(C)CCO[*:1]]}$$$$V2.0)
chloride (lucigenin) transport through the organic phase: no chloride was carried through the organic phase
